Data taken from the OPERA property sets (Mansouri et al. 2018).
≈ marks a conversion by molar mass, not a printed value.

Details: for solubility: 25 °C

Structure (SMILES)	logP	solubility [µM]
COc1cc(Cl)c(Cl)c(Cl)c1OC	4.01	42.6 (≈ 10.3 µg/mL)
COc1cc(Cl)c(Cl)c(Cl)c1Cl		5.49 (≈ 1.35 µg/mL)
COc1c(Cl)c(Cl)cc(Cl)c1Cl		7.4 (≈ 1.82 µg/mL)
COc1cccc(Cl)c1Cl	3.24	491 (≈ 86.9 µg/mL)
COc1cccc(Cl)c1		1650 (≈ 235 µg/mL)
COc1c(Cl)cccc1Cl	3.14	791 (≈ 140 µg/mL)
COc1ccc(Cl)c(Cl)c1Cl		51.1 (≈ 10.8 µg/mL)
COc1cc(Cl)c(Cl)cc1OC	3.11	348 (≈ 72 µg/mL)
COc1c(Cl)c(Cl)c(Cl)c(Cl)c1OC	4.86	5.76 (≈ 1.59 µg/mL)
